# Assay results: PMC7251097, “Aspartate/asparagine-β-hydroxylase: a high-throughput mass spectrometric assay for discovery of small molecule inhibitors” (Scientific Reports, 2020)
# Structures can show the parent of a compound that is named as a salt. Where two headings read alike, the source gives them in different places. Starred links: 1 amine or outer side, 2 acyl side, 3 side chain; linkers in the order of their positions; H or OH if unused. Non-standard residues stand in square brackets, D forms with d. Residues, ends and D or L forms follow the SMILES beside them. X1 = NCCCC[C@H](N)CN([C@@H](CCCCN)C(=O)[*:2])[*:1]; Tle = CC(C)(C)[C@H](N)C(=O)O
# Biological target: T1, His6-AspH315–758 (human aspartate/asparagine-β-hydroxylase, AspH) (Homo sapiens, UniProt Q12797)
# T1 construct: N-Terminally His6-tagged human AspH315–758 (His6-AspH315–758) was produced in E. coli BL21 (DE3) cells; made in house; host or cells: E. coli BL21 (DE3), pET-28a(+) vector
# T1 sequence (Q12797 315-758): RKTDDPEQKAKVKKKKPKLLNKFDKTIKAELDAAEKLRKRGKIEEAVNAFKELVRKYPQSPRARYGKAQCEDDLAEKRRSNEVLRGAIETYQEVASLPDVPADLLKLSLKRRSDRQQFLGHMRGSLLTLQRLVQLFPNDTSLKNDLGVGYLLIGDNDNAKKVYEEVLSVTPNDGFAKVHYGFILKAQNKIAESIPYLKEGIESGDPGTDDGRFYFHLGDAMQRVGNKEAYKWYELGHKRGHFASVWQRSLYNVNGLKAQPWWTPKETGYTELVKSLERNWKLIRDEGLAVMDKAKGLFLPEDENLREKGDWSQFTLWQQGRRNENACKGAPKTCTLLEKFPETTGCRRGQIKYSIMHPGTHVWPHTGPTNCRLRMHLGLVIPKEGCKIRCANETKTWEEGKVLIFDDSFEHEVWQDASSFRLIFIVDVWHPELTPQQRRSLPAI
# Assay: SPE-MS AspH inhibition assay (LOPAC screen at fixed 20 μM and IC50 dose-response), hydroxylation of cyclic peptide hFX-CP101–119
# Format: biochemical
# [1] = LOPAC Plate 4, compound at 20 uM, read-out: % inhibition
# [2] = read-out: Plate 2 (% inhibition)
# [3] = LOPAC compound at fixed 20 uM, plate 1, normalised to DMSO and 2,4-PDCA controls
# [4] = LOPAC compound at fixed 20 uM, substrate conversion, plate 1
# [5] = LOPAC compound at 20uM, plate 3, conversion of substrate peptide
# [6] = LOPAC compound at 20uM, plate 2, conversion of substrate peptide
# [7] = LOPAC compound at 20uM, plate 2, normalised to DMSO and 2,4-PDCA controls
# [8] = LOPAC Plate 4, compound at 20 uM, substrate conversion
# [9] = LOPAC Plate 4, compound at 20 uM
# [10] = LOPAC compound at 20uM, plate 2, normalised to DMSO and 2,4-PDCA controls, read-out: Plate 2 (% inhibition)
smiles,measurement,setting,value
CCCCCCNC(=O)n1cc(F)c(=O)[nH]c1=O [Carmofur],% conversion,,37.69%
same,inhibition at 20 µM,[1],-3.58%
N=C(N)NCCC[C@H](N)C(=O)O [L-Arginine],Plate 1 (% conversion),,38.11%
same,Plate 1 (% inhibition),,-6.68%
c1ccc2c(c1)[I+]c1ccccc1-2 [Diphenyleneiodonium chloride],Plate 2 (% conversion),,35.66%
same,inhibition at 20 µM,[2],0.88%
"CC(C)c1ccc2c(c1)c(SC(C)(C)C)c(CC(C)(C)C(=O)O)n2Cc1ccc(Cl)cc1 [MK-886, reference compound]",IC50,"50 nM His6-AspH315–758, 1.0 μM hFX-CP101–119, 3 μM 2OG, 2 μM Fe(II), 50 mM HEPES pH 7.5, 20 °C, mean ± SD, n = 2 (2,4-PDCA n = 10), read-out: IC50",8.58 ± 1.93 µM
same,Inhibition at 20 µM [%],"AspH activity, fixed compound concentration 20 μM, initial LOPAC screen, 0.5%v/v DMSO",99.9%
O=C(Nc1ccc2c(c1)CCN(Cc1ncn[nH]1)C2)c1ccccc1-c1ccc(C(F)(F)F)cc1 [CP-346086],Plate 5 (% conversion),,46.02%
same,Plate 5 (% inhibition),,-28.53%
CN(Cc1cnc2nc(N)nc(N)c2n1)c1ccc(C(=O)N[C@@H](CCC(=O)O)C(=O)O)cc1.O [Methotrexate hydrate],Plate 1 (% inhibition),[3],-3.72%
same,Plate 1 (% conversion),[4],37.12%
"CCCCS(=N)(=O)CCC(N)C(=O)O (racemic) [DL-Buthionine-[S,R]-sulfoximine]",Plate 1 (% conversion),,34.26%
same,Plate 1 (% inhibition),,4.80%
CC(=N)NCCCC[C@H](N)C(=O)O.Cl [L-N6-(1-Iminoethyl)lysine hydrochloride],Plate 3 (% conversion),[5],40.67%
O=C(Nc1cc(C(F)(F)F)cc(C(F)(F)F)c1)Nc1c(Br)cc(Br)cc1-c1nn[nH]n1 [NS5806],Plate 2 (% conversion),[6],28.28%
same,Plate 2 (% inhibition),[7],22.93%
CO[C@@]1(NC(=O)CSCC#N)C(=O)N2C(C(=O)O)=C(CSc3nnnn3C)CS[C@@H]21 [Cefmetazole sodium],Plate 1 (% inhibition),[3],-3.81%
same,Plate 1 (% conversion),[4],37.15%
NC(=Nc1ccccc1)NC(=O)c1nc(Cl)c(N)nc1N [Phenamil methanesulfonate],% conversion,[8],39.99%
same,inhibition at 20 µM,[1],-10.3%
CN(C)CC/C=C1/c2ccccc2Sc2ccc(Cl)cc21 [Chlorprothixene hydrochloride],Plate 1 (% inhibition),[3],-27.95%
same,Plate 1 (% conversion),[4],45.26%
O=C1C(SCCO)=C(SCCO)C(=O)c2ccccc21 [NSC 95397],Plate 2 (% conversion),,23.59%
same,Plate 2 (% inhibition),20 µM,36.92%
COC(=O)C1=C(C)NC(C)=C(C(=O)OC(C)(C)CN(C)CCC(c2ccccc2)c2ccccc2)C1c1cccc([N+](=O)[O-])c1.COC(=O)C1=C(C)NC(C)=C(C(=O)OC(C)(C)CN(C)CCC(c2ccccc2)c2ccccc2)C1c1cccc([N+](=O)[O-])c1.Cl.Cl.O (stereo not shown) [Lercanidipine hydrochloride hemihydrate],Plate 1 (% inhibition),[3],25.41%
same,Plate 1 (% conversion),[4],27.34%
CN1CCc2cc(Cl)c(O)cc2[C@@H](c2ccccc2)C1.Cl [R(+)-SCH-23390 hydrochloride],Plate 2 (% inhibition),[7],-3.60%
O=C1CCC(N2C(=O)c3ccccc3C2=O)C(=O)N1 (racemic) [(±)-Thalidomide],% inhibition,[9],-5.00%
same,% conversion,[8],38.18%
NCCc1c[nH]c2ccccc12 [Tryptamine hydrochloride],Plate 1 (% conversion),,34.54%
same,Plate 1 (% inhibition),,3.95%
CC(=O)[C@H]1CC[C@H]2[C@@H]3CC[C@H]4C[C@H](O)CC[C@]4(C)[C@H]3CC[C@]12C [5alpha-Pregnan-3alpha-ol-20-one],% conversion,,26.94%
CCCN(CCC)CCc1ccc(O)c(O)c1 [Dipropyldopamine hydrobromide],Plate 2 (% conversion),,10.27%
same,inhibition at 20 µM,[2],76.7%
CC(=O)O[C@H]1C[C@@]2(C)[C@@H](C[C@@H](O)[C@H]3[C@@]4(C)CC[C@@H](O)[C@@H](C)[C@@H]4CC[C@@]32C)/C1=C(\CCC=C(C)C)C(=O)[O-].[Na+] [Fusidic acid sodium],Plate 2 (% conversion),[6],40.54%
same,Plate 2 (% inhibition),[7],-13.68%
Cn1c(=O)c2[nH]c(-c3ccc(S(=O)(=O)O)cc3)nc2n(C)c1=O [8-(p-Sulfophenyl)theophylline],Plate 1 (% inhibition),[3],51.62%
same,Plate 1 (% conversion),[4],18.54%
NC/C=C/C(=O)O [(E)-4-amino-2-butenoic acid],% inhibition,[9],0.14%
same,% conversion,[8],36.42%
Fc1ccc2[nH]c(CN3CCN(c4ccccn4)CC3)cc2c1 [CP-226269],% conversion,,39.74%
same,Plate 5 (% conversion),,37.75%
same,Plate 5 (% inhibition),,-4.22%
NS(=O)(=O)c1cc2c(cc1Cl)NCNS2(=O)=O [Hydrochlorothiazide],Plate 2 (% conversion),[6],36.43%
same,inhibition at 20 µM,[10],-1.41%
O=C1OC(=O)[C@H]2[C@@H]1[C@@H]1CC[C@H]2O1 [Norcantharidin],Plate 3 (% conversion),,35.60%
Fc1cccc(/C=N/N=C/c2cccc(F)c2)c1 [DFB],Plate 3 (% conversion),[5],35.73%
Nc1nc(N)c2nc(-c3ccccc3)c(N)nc2n1 [Triamterene],% conversion,[8],36.11%
N=C(N)c1ccccc1 [Benzamidine hydrochloride],Plate 1 (% inhibition),[3],-1.42%
same,Plate 1 (% conversion),[4],36.35%
O=c1nc2[nH]c3ccccc3nc-2c(=O)[nH]1 [Alloxazine],Plate 1 (% inhibition),[3],-13.62%
same,Plate 1 (% conversion),[4],40.45%
Cc1scc2c1N(C(=O)CN1CCN(C)CC1)c1ccccc1NC2=O [Telenzepine dihydrochloride],% conversion,[8],38.43%
same,inhibition at 20 µM,[1],-5.75%
Cl.Nc1cc(Cl)c(N=C2NCCN2)c(Cl)c1 [p-Aminoclonidine hydrochloride],Plate 1 (% inhibition),[3],-0.11%
same,Plate 1 (% conversion),[4],35.91%
CN(C)c1ccc(/C=C2\C(=O)Nc3ccccc32)cc1 [SU 4312],% inhibition,[9],2.06%
same,% conversion,[8],35.77%
NNCCc1ccccc1 [Phenelzine sulfate],inhibition at 20 µM,,-1.74%
CCCCCCCCCC(=O)NC(CN1CCOCC1)[C@H](O)c1ccccc1.Cl (mixture of isomers),% conversion,[8],45.09%
O=C(O)COCCN1CCN(C(c2ccccc2)c2ccc(Cl)cc2)CC1 (stereo not shown) [Cetirizine dihydrochloride],inhibition at 20 µM,[10],-5.77%
CCOC(=O)[C@H](CC(C)C)NC(=O)[C@@H](NC(=O)[C@H](Cc1c[nH]c2ccccc12)NC(=O)[C@@H]1CCCN1C(=O)[C@H](CCCCN)NC[C@@H](N)CCCCN)C(C)(C)C [PD-149163] (H-[X1]PW[Tle]L-OEt),Plate 5 (% inhibition),"plate 5 (Pfitzer), test compounds at fixed 20 μM",-16.72%
same,Plate 5 (% conversion),"plate 5 (Pfitzer), test compounds at fixed 20 μM, mean conversion DMSO 32.88",42.01%
CCS(=O)(=O)Nc1cccc(C(=C2CCCCC2)c2cnc[nH]2)c1 [A-315456],Plate 1 (% conversion),,40.98%
same,Plate 1 (% inhibition),,-15.20%
"CC(N)C(O)c1ccc(O)c(O)c1 (single isomer, unassigned; (-)) [(-)-alpha-Methylnorepinephrine]",Plate 2 (% conversion),,7.36%
same,Plate 2 (% inhibition),20 µM,85.40%
Cc1c2ccncc2c(C)c2c1[nH]c1ccccc12 [Ellipticine],Plate 2 (% conversion),,45.95%
same,inhibition at 20 µM,[10],-29.9%
"C[N+]1(C)[C@@H]2CC(OC(=O)[C@H](CO)c3ccccc3)C[C@H]1[C@@H]1O[C@@H]12.O=[N+]([O-])[O-] (single isomer, unassigned; (-)) [(-)-Scopolamine methyl nitrate]",% conversion,,25.39%
N.S=C(S)N1CCCC1 [Ammonium pyrrolidinedithiocarbamate],% conversion,[8],37.86%
COc1ccccc1CN[C@H]1CCCN[C@H]1c1ccccc1 [CP-100263],Plate 5 (% conversion),,33.08%
same,Plate 5 (% inhibition),,9.51%
CN(C)CCC(c1ccc(Cl)cc1)c1ccccn1.O=C(O)/C=C\C(=O)O (racemic) [(±)-Chlorpheniramine maleate],Plate 1 (% inhibition),[3],-6.31%
same,Plate 1 (% conversion),[4],37.99%
CC(C)c1cccc(C(C)C)c1O [Propofol],Plate 2 (% conversion),,38.08%
same,inhibition at 20 µM,[2],-6.34%
O=C(NCCN1CCOCC1)c1ccc(Cl)cc1 [Moclobemide],Plate 3 (% conversion),[5],38.98%
"O=c1oc(Cl)c(Cl)c2ccccc12 [3,4-Dichloroisocoumarin]",Plate 2 (% conversion),,29.65%
same,Plate 2 (% inhibition),[7],18.85%
"O=c1c(O)c(-c2ccc(O)cc2O)oc2cc(O)cc(O)c12 [Morin, reference compound]",inhibition at 20 µM,"AspH activity, fixed compound concentration 20 μM, initial LOPAC screen, 0.5%v/v DMSO, read-out: Inhibition at 20 µM [%]",101%
CC(N)Cc1c[nH]c2ccc(O)cc12.O=C(O)/C=C\C(=O)O (stereo not drawn) [alpha-Methyl-5-hydroxytryptamine maleate],Plate 3 (% conversion),,39.06%
CC(=O)NCCc1c[nH]c2ccc(O)cc12 [N-Acetyl-5-hydroxytryptamine],Plate 1 (% conversion),,34.66%
same,Plate 1 (% inhibition),,3.61%
NS(=O)(=O)C#Cc1ccccc1 [Pifithrin-mu],% conversion,[8],31.04%
CC(C)NC[C@H](O)COc1ccc(CC(N)=O)cc1 [S(-)-Atenolol],Plate 1 (% inhibition),[3],-5.71%
same,Plate 1 (% conversion),[4],37.79%
